Assay results reported in US20160002226A1, “PYRI[…] AND THEIR USE IN THE TREATMENT, AMELIORATION OR PREVENTION OF INFLUENZA” (F. Hoffmann-La Roche AG, priority 2014, published 2016).
pIC50: −log10 of the molar value.

Legend:
[1] = tested on: influenza A virus A/Aichi/2/68 (H3N2) on MDCK cells; experiment: Cytopathic effect (CPE) assay; type: cell-based; conditions: Influenza A virus, 48 hrs, the 2nd table
[2] = biological target: whole RNP complex of IAV strain A/PR/8/34 (Influenza A virus, UniProt P03433); experiment: Transcription assay (TA assay); type: biochemical; conditions: RNPs of A/PR/8/34, capped RNA substrate

**Q.** Which results are given for `CC(C)N1CCn2c(CN(C)Cc3ccc(Cl)cc3)cc(=O)c(O)c2C1=O`?
**A.** pIC50 [1]: < 4.30; pIC50 [2]: 5.67

**Q.** `CC(C)N1CCn2c(CN(C)Cc3ccc(-c4ccccc4)cc3)cc(=O)c(O)c2C1=O` was tested. Which pIC50 [1] did it give?
**A.** < 4.30

**Q.** What about the pIC50 [2] of the same compound?
**A.** 4.93

**Q.** How did the pIC50 [1] turn out when `CC(C)N1CCn2c(CN(Cc3ccc(-c4ccccc4)cc3)C3CC3)cc(=O)c(O)c2C1=O` was run?
**A.** < 4.30

**Q.** And the pIC50 [2]?
**A.** 5.27
